Measured values as given in patent publication US9776972B2, “Pyrazole derivatives as arginine methyltransferase inhibitors and uses thereof” (priority 2013, dated 2017).

How the values were obtained:
human PRMT8 = human PRMT8 (Homo sapiens, UniProt Q9NR22); assay: PRMT8 Biochemical Assay (3H-SAM Flashplate, peptide substrate); conditions: single experiment or average of multiple experiments
In short: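 E. coli-expressed human PRMT8 (GST removed) was preincubated with compound for 30 min at room temperature in 20 mM Bicine pH 7.6 with TCEP, BSG and Tween 20. 3H-SAM and a biotinylated H4 31-45 peptide were then added, and the reaction was stopped with cold SAM. Labelled peptide was captured on streptavidin Flashplates; % inhibition was calculated against DMSO and SAH controls and fitted to a 3- or 4-parameter curve.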

[1] = system: mono-methyl arginine in RKO cells; assay: RKO Methylation Assay, In Cell Western (ICW) for mono-methyl arginine and DNA content; assay type: cell-based; conditions: Homo sapiens, RKO, 72 h, RKO cells, 72 hours, mono-methyl arginine, percent activation; single experiment or average of multiple experiments; read-out: EC30 (In Cell Western data, Numerical)
In short: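 RKO cells treated with compound for 72 hours at 37 °C, then methanol-fixed and stained overnight at 4 °C with anti-mono-methyl arginine antibody, plus DRAQ5 for DNA. Signal ratio from 700 and 800 nm infrared scans normalized to DMSO (minimum) and 20 μM reference compound (maximum); EC30 from triplicate curves.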

Sequence of human PRMT8 (Q9NR22 whole entry): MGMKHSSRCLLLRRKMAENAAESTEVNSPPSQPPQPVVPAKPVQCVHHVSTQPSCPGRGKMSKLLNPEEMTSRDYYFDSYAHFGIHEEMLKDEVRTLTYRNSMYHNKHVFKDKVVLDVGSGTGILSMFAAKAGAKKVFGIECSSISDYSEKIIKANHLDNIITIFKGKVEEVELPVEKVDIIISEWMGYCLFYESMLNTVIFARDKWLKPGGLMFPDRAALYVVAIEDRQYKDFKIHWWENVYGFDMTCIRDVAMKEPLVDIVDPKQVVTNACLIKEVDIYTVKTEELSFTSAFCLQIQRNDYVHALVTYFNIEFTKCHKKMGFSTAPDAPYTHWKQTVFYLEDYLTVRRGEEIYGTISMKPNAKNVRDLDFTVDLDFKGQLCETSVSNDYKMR

| SMILES | IC50 (human PRMT8) [nM] | EC30 [1] [nM] |
| --- | --- | --- |
| CN(CCN)Cc1c[nH]nc1-c1ccc(Oc2ccc(F)cc2)cc1 [Compound 225, N^1-((3-(4-(4-fluorophenoxy)phenyl)-1H-pyrazol-4-yl)methyl)-N^1-methylethane-1,2-diamine] | 35.8 | 688 |
| CN(CCN)Cc1c[nH]nc1-c1ccc(Oc2ccccc2)c(C(=O)N(C)C)c1 [Compound 226] | 7250 | > 20000 |
| CNC(=O)c1cc(-c2n[nH]cc2CN(C)CCN)ccc1Oc1ccccc1 [Compound 227] | 660 | 15000 |
| CNCCN(C)Cc1c[nH]nc1-c1ccc(OCCCOC)c(Cl)c1 [Compound 228] | 316 | 279 |
